# Test results from patent US9775904B2 (priority 2014, dated 2017).
# Read-outs that look alike come from different tables or passages of the source.
# Tests used:
# [1] = target: T1, human GIP receptor (hGIP-R) (Homo sapiens, UniProt P48546); assay: cAMP response of HEK-293 cells expressing human GIP receptor (HTRF); format: cell-based
# T1 construct: expressed in transfected cells
# T1 sequence (P48546 22-466): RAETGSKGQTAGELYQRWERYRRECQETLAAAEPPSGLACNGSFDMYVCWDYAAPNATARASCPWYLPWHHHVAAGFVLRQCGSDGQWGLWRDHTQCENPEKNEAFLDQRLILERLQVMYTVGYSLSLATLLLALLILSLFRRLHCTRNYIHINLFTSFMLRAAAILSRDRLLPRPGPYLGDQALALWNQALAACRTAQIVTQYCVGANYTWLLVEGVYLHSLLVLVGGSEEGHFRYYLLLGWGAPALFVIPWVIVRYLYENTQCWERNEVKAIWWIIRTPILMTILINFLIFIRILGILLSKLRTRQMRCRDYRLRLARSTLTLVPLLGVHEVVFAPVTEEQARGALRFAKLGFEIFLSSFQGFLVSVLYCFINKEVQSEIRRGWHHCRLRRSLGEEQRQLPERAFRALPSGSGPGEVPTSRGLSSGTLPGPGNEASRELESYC
# Method: (§1) cAMP content of cells was determined using a kit from Cisbio Corp. (cat. no. 62AM4PEC) based on HTRF (Homogenous Time Resolved Fluorescence). For preparation, cells were split into T175 culture flasks and grown overnight to near confluency in medium (DMEM/10% FBS). Medium was then removed and cells washed with PBS lacking calcium and magnesium, followed by proteinase treatment with accutase (Sigma-Aldrich cat. no. A6964). Detached cells were washed and resuspended in assay buffer (1×HBSS; 20 mM HEPES, 0.1% BSA, 2 mM IBMX) and cellular density determined. They were then diluted to 400000 cells/ml and 25 μl-aliquots dispensed into the wells of 96-well plates. For measurement, 25 μl of test compound in assay buffer was added to the wells, followed by incubation for 30 minutes at room temperature.
# [2] = target: T2, human glucagon receptor (hGlucagon R) (Homo sapiens, UniProt P47871); assay: cAMP response of HEK-293 cells expressing human glucagon receptor (HTRF); format: cell-based
# T2 construct: expressed in transfected cells
# Method: as §1
# [3] = target: T3, human GLP-1 receptor (hGLP-1 R) (Homo sapiens, UniProt P43220); assay: cAMP response of HEK-293 cells expressing human GLP-1 receptor (HTRF); format: cell-based; conditions: Table 6
# T3 construct: expressed in transfected cells
# Method: as §1
# [4] = Solubility testing in buffer (HPLC-UV); format: physicochemical
# Method: Prior to the testing of solubility and stability of a peptide batch, its purity (HPLC-UV) was determined.
# . Therefore, solutions from solid samples were prepared in different buffer systems with a concentration of 10 mg/mL compound based on the previously determined % purity. HPLC-UV was performed after 2 h of gentle agitation from the supernatant, which was obtained by 20 min of centrifugation at 4500 rpm.
# […]. This analysis also served as starting point (t0) for the stability testing.
# [5] = Acute effect on blood glucose in fed female DIO C57BL/6 mice; format: in vivo; conditions: 50 μg/kg s.c. once daily; t=1, 2, 3, 4, 6 and 24 h post dosing; p<0.001
# Method: (§2) C57BL/6 Harlan mice are housed in groups in a specific pathogen-free barrier facility on a 12 h light/dark cycle with free access to water and standard or high-fat diet. After prefeeding on high-fat diet, mice are stratified to treatment groups (n=8), so that each group has similar mean body weight. An age-matched group with ad-libitum access to standard chow is included as standard control group. Before the experiment, mice are subcutaneously (s.c.) injected with vehicle solution and weighed for 3 days to acclimate them to the procedures.
# 1) Acute effect on blood glucose in fed female DIO mice: initial blood samples are taken just before first administration (s.c.) of vehicle (phosphate buffer solution) or the exendin-4 derivatives (dissolved in phosphate buffer), respectively. The volume of administration is 5 mL/kg. The animals have access to water and their corresponding diet during the experiment. Blood glucose levels are measured at t=0 h, t=1 h, t=2 h, t=3 h, t=4 h, t=6 h and t=24 h (method: Accu-Check glucometer). Blood sampling is performed by tail incision without anaesthesia.
# (§3) Statistical analyses are performed with Everstat 6.0 by repeated measures two-way ANOVA and Dunnetts post-hoc analyses (glucose profile) and 1-way-ANOVA, followed by Dunnetts post-hoc test (body weight, body fat). Differences versus vehicle-treated DIO control mice are considered statistically significant at the p<0.05 level.
# At predefined time points, more blood samples were taken to measure blood glucose and generate the blood glucose profile over 24 h.
# [6] = Chronic effect on body weight and body fat in female DIO C57BL/6 mice, 4 weeks; format: in vivo; conditions: 50 μg/kg qd s.c.
# Method: as §2
# 2) Chronic effect on body weight in female DIO mice: mice are treated once (s.c. in evening hours) or twice daily (s.c. in the morning and in the evening), respectively, at the beginning and the end of the light phase with either vehicle or exendin-4 derivatives for 4 weeks. Body weight is recorded daily. Two days before start of treatment and on day 26, total fat mass is measured by nuclear magnetic resonance (NMR).
# as §3
# Body weight was recorded daily, and body fat content was determined before the start and after 4 weeks of treatment. […] These changes resulted from a decrease in body fat, as shown by the absolute changes in body fat content (Table 10, FIG. 3).
# Body weight was recorded daily, and body fat content was determined before the start and after 4 weeks of treatment.
# [7] = pH 4.5, target concentration 10 mg/ml, read-out: solubility [mg/ml] pH 4.5
# [8] = pH 7.4, target concentration 10 mg/ml, read-out: solubility [mg/ml] pH 7.4
# T2 sequence (P47871 26-477): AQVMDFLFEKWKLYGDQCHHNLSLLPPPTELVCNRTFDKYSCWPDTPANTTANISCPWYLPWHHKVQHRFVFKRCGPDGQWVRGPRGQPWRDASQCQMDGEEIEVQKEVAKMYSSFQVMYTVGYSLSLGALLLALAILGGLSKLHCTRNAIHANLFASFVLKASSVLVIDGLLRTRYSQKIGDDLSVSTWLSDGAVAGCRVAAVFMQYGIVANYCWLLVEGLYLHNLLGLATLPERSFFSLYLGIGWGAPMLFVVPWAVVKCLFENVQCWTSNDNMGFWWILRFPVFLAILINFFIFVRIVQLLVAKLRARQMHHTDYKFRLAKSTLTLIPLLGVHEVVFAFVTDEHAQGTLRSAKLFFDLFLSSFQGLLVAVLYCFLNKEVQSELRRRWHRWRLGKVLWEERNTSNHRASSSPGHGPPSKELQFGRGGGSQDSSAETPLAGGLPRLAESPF
# T3 sequence (P43220 24-463): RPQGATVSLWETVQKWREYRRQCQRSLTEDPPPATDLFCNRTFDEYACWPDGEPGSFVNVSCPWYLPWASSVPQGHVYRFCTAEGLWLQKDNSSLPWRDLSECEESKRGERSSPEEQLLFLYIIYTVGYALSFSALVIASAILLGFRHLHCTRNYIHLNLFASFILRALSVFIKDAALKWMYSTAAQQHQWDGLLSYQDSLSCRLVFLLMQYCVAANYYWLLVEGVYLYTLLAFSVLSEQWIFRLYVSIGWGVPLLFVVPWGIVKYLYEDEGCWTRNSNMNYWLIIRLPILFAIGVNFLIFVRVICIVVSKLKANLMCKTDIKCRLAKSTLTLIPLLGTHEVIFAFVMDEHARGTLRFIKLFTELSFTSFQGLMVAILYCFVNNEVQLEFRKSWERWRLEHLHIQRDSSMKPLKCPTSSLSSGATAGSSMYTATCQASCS
SMILES,"EC50 ([1]; Table 6, read-out: EC50 hGIP-R) [nM]",EC50 ([2]; Table 6) [nM],EC50 [3] [nM],"solubility at 2 h [4, 7] [mg/mL]","solubility at 2 h [4, 8] [mg/mL]",Blood glucose compared to DIO control mice [5],"EC50 ([1]; Table 7, comparison of residue in position 14, read-out: EC50 hGIP-1) [nM]","Day on which significant body weight decrease begins ([6]; 4 weeks, continuing through the end of the study) [days]","Daily body weight compared to vehicle DIO control mice ([6]; 4 weeks, p>0.001 by the end of the study (so in the source))","Body fat change ([6]; DIO mice, 4-week treatment, NMR, mean ± SEM) [g]","Overall weight change ([6]; DIO mice, 4-week treatment, mean ± SEM) [g]","EC50 ([2]; Table 7, comparison of residue in position 14) [nM]"
"CCCCCCCCCCCCCCCC(=O)N[C@@H](CCC(=O)NCCCC[C@H](NC(=O)[C@H](CCC(N)=O)NC(=O)[C@H](CCCCN)NC(=O)[C@H](CO)NC(=O)[C@H](CC(C)C)NC(=O)[C@H](CC(=O)O)NC(=O)[C@H](CO)NC(=O)[C@@H](NC(=O)[C@H](Cc1ccccc1)NC(=O)[C@@H](NC(=O)CNC(=O)[C@H](CCC(N)=O)NC(=O)C(C)(C)NC(=O)[C@@H](N)Cc1c[nH]cn1)[C@@H](C)O)[C@@H](C)O)C(=O)N[C@@H](CC(=O)O)C(=O)N[C@@H](CCC(=O)O)C(=O)N[C@@H](CCC(N)=O)C(=O)N[C@@H](CCCNC(=N)N)C(=O)N[C@@H](C)C(=O)N[C@@H](CCCCN)C(=O)N[C@@H](CC(C)C)C(=O)N[C@@H](Cc1ccccc1)C(=O)N[C@H](C(=O)N[C@@H](CCC(=O)O)C(=O)N[C@@H](Cc1c[nH]c2ccccc12)C(=O)N[C@@H](CC(C)C)C(=O)NC(C)(C)C(=O)N[C@@H](C)C(=O)NCC(=O)NCC(=O)N1CCC[C@H]1C(=O)N[C@@H](CO)C(=O)N[C@@H](CO)C(=O)NCC(=O)N[C@@H](C)C(=O)N1CCC[C@H]1C(=O)N1CCC[C@H]1C(=O)N1CCC[C@H]1C(=O)N[C@@H](CO)C(N)=O)[C@@H](C)CC)C(=O)O [SEQ ID NO: 10, H-Aib-Q-G-T-F-T-S-D-L-S-K-Q-K(γE-x53)-D-E-Q-R-A-K-L-F-I-E-W-L-Aib-A-G-G-P-S-S-G-A-P-P-P-S-NH2]",0.89,0.0524,0.0035,,,,,,,,,
"CCCCCCCCCCCCCCCC(=O)N[C@@H](CCC(=O)N[C@@H](CCC(=O)NCCCC[C@H](NC(=O)[C@H](CCC(N)=O)NC(=O)[C@H](CCCCN)NC(=O)[C@H](CO)NC(=O)[C@H](CC(C)C)NC(=O)[C@H](CC(=O)O)NC(=O)[C@H](CO)NC(=O)[C@@H](NC(=O)[C@H](Cc1ccccc1)NC(=O)[C@@H](NC(=O)CNC(=O)[C@H](CCC(N)=O)NC(=O)C(C)(C)NC(=O)[C@@H](N)Cc1c[nH]cn1)[C@@H](C)O)[C@@H](C)O)C(=O)N[C@@H](CC(=O)O)C(=O)N[C@@H](CCC(=O)O)C(=O)N[C@@H](CCC(N)=O)C(=O)N[C@@H](CCCNC(=N)N)C(=O)N[C@@H](C)C(=O)N[C@@H](CCCCN)C(=O)N[C@@H](CC(C)C)C(=O)N[C@@H](Cc1ccccc1)C(=O)N[C@H](C(=O)N[C@@H](CCC(=O)O)C(=O)N[C@@H](Cc1c[nH]c2ccccc12)C(=O)N[C@@H](CC(C)C)C(=O)NC(C)(C)C(=O)N[C@@H](CCCCN)C(=O)N[C@H](C)C(=O)NCC(=O)N1CCC[C@H]1C(=O)N[C@@H](CO)C(=O)N[C@@H](CO)C(=O)NCC(=O)N[C@@H](C)C(=O)N1CCC[C@H]1C(=O)N1CCC[C@H]1C(=O)N1CCC[C@H]1C(=O)N[C@@H](CO)C(N)=O)[C@@H](C)CC)C(=O)O)C(=O)O [SEQ ID NO: 14, H-Aib-Q-G-T-F-T-S-D-L-S-K-Q-K(γE-γE-x53)-D-E-Q-R-A-K-L-F-I-E-W-L-Aib-K-dAla-G-P-S-S-G-A-P-P-P-S-NH2]",,,,> 8,> 8,,,,,,,
"CCCCCCCCCCCCCCCC(=O)N[C@@H](CCC(=O)N[C@@H](CCC(=O)NCCCC[C@H](NC(=O)[C@H](CCC(N)=O)NC(=O)[C@H](CCCCN)NC(=O)[C@H](CO)NC(=O)[C@H](CC(C)C)NC(=O)[C@H](CC(=O)O)NC(=O)[C@H](CO)NC(=O)[C@@H](NC(=O)[C@H](Cc1ccccc1)NC(=O)[C@@H](NC(=O)CNC(=O)[C@H](CCC(N)=O)NC(=O)C(C)(C)NC(=O)[C@@H](N)Cc1c[nH]cn1)[C@@H](C)O)[C@@H](C)O)C(=O)N[C@@H](CC(=O)O)C(=O)N[C@@H](CCC(=O)O)C(=O)N[C@@H](CCC(N)=O)C(=O)N[C@@H](CCCNC(=N)N)C(=O)N[C@@H](C)C(=O)N[C@@H](CCCCN)C(=O)N[C@@H](CC(C)C)C(=O)N[C@@H](Cc1ccccc1)C(=O)N[C@H](C(=O)N[C@@H](CCC(=O)O)C(=O)N[C@@H](Cc1c[nH]c2ccccc12)C(=O)N[C@@H](CC(C)C)C(=O)NC(C)(C)C(=O)N[C@@H](CCCCN)C(=O)NCC(=O)NCC(=O)N1CCC[C@H]1C(=O)N[C@@H](CO)C(=O)N[C@@H](CO)C(=O)NCC(=O)N[C@@H](C)C(=O)N1CCC[C@H]1C(=O)N1CCC[C@H]1C(=O)N1CCC[C@H]1C(=O)N[C@@H](CO)C(N)=O)[C@@H](C)CC)C(=O)O)C(=O)O [SEQ ID NO: 15, H-Aib-Q-G-T-F-T-S-D-L-S-K-Q-K(γE-γE-x53)-D-E-Q-R-A-K-L-F-I-E-W-L-Aib-K-G-G-P-S-S-G-A-P-P-P-S-NH2]",,,,> 8,> 8,significant decrease in blood glucose,11.9,4,statistically significant decrease,-4.01 ± 0.68,-4.59 ± 1.1,0.394
"CCCCCCCCCCCCCCCCCC(=O)N[C@@H](CCC(=O)NCCCC[C@H](NC(=O)[C@H](CCC(N)=O)NC(=O)[C@H](CCCCN)NC(=O)[C@H](CO)NC(=O)[C@H](CC(C)C)NC(=O)[C@H](CC(=O)O)NC(=O)[C@H](CO)NC(=O)[C@@H](NC(=O)[C@H](Cc1ccccc1)NC(=O)[C@@H](NC(=O)CNC(=O)[C@H](CCC(N)=O)NC(=O)C(C)(C)NC(=O)[C@@H](N)Cc1c[nH]cn1)[C@@H](C)O)[C@@H](C)O)C(=O)N[C@@H](CC(=O)O)C(=O)N[C@@H](CCC(=O)O)C(=O)N[C@@H](CCC(N)=O)C(=O)N[C@@H](CCCNC(=N)N)C(=O)N[C@@H](C)C(=O)N[C@@H](CCCCN)C(=O)N[C@@H](CC(C)C)C(=O)N[C@@H](Cc1ccccc1)C(=O)N[C@H](C(=O)N[C@@H](CCC(=O)O)C(=O)N[C@@H](Cc1c[nH]c2ccccc12)C(=O)N[C@@H](CC(C)C)C(=O)NC(C)(C)C(=O)N[C@@H](C)C(=O)NCC(=O)NCC(=O)N1CCC[C@H]1C(=O)N[C@@H](CO)C(=O)N[C@@H](CO)C(=O)NCC(=O)N[C@@H](C)C(=O)N1CCC[C@H]1C(=O)N1CCC[C@H]1C(=O)N1CCC[C@H]1C(=O)N[C@@H](CO)C(N)=O)[C@@H](C)CC)C(=O)O [SEQ ID NO: 9, H-Aib-Q-G-T-F-T-S-D-L-S-K-Q-K(γE-x70)-D-E-Q-R-A-K-L-F-I-E-W-L-Aib-A-G-G-P-S-S-G-A-P-P-P-S-NH2]",1.16,0.0154,0.0064,,,,,,,,,
